Results as given in patent US20240230626A9, “METHOD FOR SCREENING POTENTIAL THERAPEUTIC AGENTS” (UNIVERSITEIT ANTWERPEN, priority 2021, published 2024).

Test system: hPSC21/MiaPaca2 co-culture
Experiment: Co-culture of RFP-labelled MiaPaca2 cancer cells and GFP-labelled hPSC21 stellate cells, kinetic fluorescence imaging
Type: cell-based, Human
Excerpt: Pancreatic ductal adenocarcinoma (PDAC) MiaPaca2 cancer cells were transduced with Nuclight Red lentiviral reagent to stably express RFP. Human pancreatic stellate cells 21 (hPSC21) were transduced with the Nuclight Green lentiviral reagent to stably express GFP. Both cell lines were cultures in a 2:1 hPSC21/MiaPaca2 ratio in a 384-well ultra-low attachment plate and treated with the Rho-kinase inhibitor Y-27632, an inducer of a cancer associated fibroblast (CAF) like phenotype of stellate cells (Li et al., Aging, 2020). The cells were incubated at 37° C./5CO2 in the Tecan Spark Cyto multimode plate reader with imaging capabilities and BF, red and green fluorescent images were taken every hour for 48 hours.

C[C@@H](N)[C@H]1CC[C@H](C(=O)Nc2ccncc2)CC1 [Y-27632]
morphology versus control sample (2:1 hPSC21/MiaPaca2, 384-well ultra-low attachment plate, imaged every hour for 48 hours (FIG. 7D)): activation and migration of hPSC21 towards the PDAC cancer cells
velocity of the objects inside the well (2:1 hPSC21/MiaPaca2 co-culture, imaged every hour for 48 hours (FIG. 7B)): increased
number of merges of the objects inside the well (2:1 hPSC21/MiaPaca2 co-culture, imaged every hour for 48 hours (FIG. 7C)): increased
